Laboratory results taken from paper PMC3951181, “Rosamines Targeting the Cancer Oxidative Phosphorylation Pathway” (PLoS ONE, 2014).

Key:
[1] = tested on: HSC-2 cells; assay: JC-1 analysis of mitochondrial membrane potential; type: cell-based, human; details: for cell population with mitochondrial transmembrane potential loss: 0.1 µM, untreated control about 8% at 8 h
Experimental: The mitochondrial membrane potential was measured based on the potential–dependent accumulation of the cationic JC-1 dye which results in a shift of fluorescence emission from green (∼525 nm) to red (∼590 nm) due to the formation of J-aggregates. Therefore, mitochondrial depolarization is indicated by a decrease in the red/green fluorescence intensity ratio. Briefly, cells were collected and suspended in 1 ml warm media at approximately 1×10^6 cell/ml. In a control tube, 1 µl of 50 mM CCCP was added and incubated at 37°C for 5 min. Then, 10 µl of 200 µM JC-1 was added into the cells and incubated at 37°C for 30 min. Cells were washed twice with warm PBS, resuspended in 500 µl of PBS and analyzed on a FACSCalibur flow cytometer using 488 nm excitation with 530/30 nm and 585/42 nm bandpass emission filters.
Meanwhile, the mitochondrial transmembrane potential loss was more prominent in HSC-2 cells treated with 5 at 0.1 µM. Approximately 21% (P<0.05) of the cell population was affected in the first hour and the percentage increased drastically to 34% in 8 h. For the untreated control cells, the population of depolarized cells at 8 h remained at approximately 8%. […] CCCP is an oxidative phosphorylation decoupling agent which acts as a positive control for the experiment.

[2] = tested on: HCT-116 colon carcinoma; assay: MTT cell viability assay, 48 h; type: cell-based; details: Homo sapiens, 48 h post-treatment, mean ± SD
Experimental: (§1) MCF-7 breast carcinoma and HCT-116 colon carcinoma cell lines were obtained from American Tissue Culture Collection (Virginia, USA) and maintained in RPMI 1640 medium supplemented with 10% FBS. HSC-2 oral cavity human squamous carcinoma cells were obtained from Health Science Research Resources Bank (Japan). HK-1, a previously characterized nasopharyngeal squamous carcinoma cells is a gift by Prof. Wong Y.C. from the University of Hong Kong. Both cell lines were grown in MEM medium supplemented with 10% FBS. For cell viability assay, cells at 4000 cells/well in 80 µl of medium were inoculated in 96-well plates and were allowed to adhere overnight. Cells were then treated with each compound at concentrations ranging from 0.001–10 µM giving the final volume of 100 µl in each well. At the end of incubation period, 15 µl of 5.0 mg/ml MTT in phosphate buffered saline (PBS) was added and incubated for 4 h. Medium and excessive MTT were aspirated and the resulting formazan was solubilized with 100 µl of dimethyl sulfoxide. Absorbance was read at 570 nm with SpectraMax M4 microplate spectrophotometer (Molecular Devices, CA).
(§2) The in vitro antitumor activity of rosamines was assessed using a 48 h endpoint cell viability methylthiazolyldiphenyl-tetrazolium bromide (MTT) assay against a panel of solid human tumor cell lines including breast carcinoma (MCF-7), colon carcinoma (HCT-116), oral squamous cell carcinoma (HSC-2) and nasopharyngeal carcinoma (HK-1). […] Within the halide series, cytotoxicities increase in the following order 4>3>[…] (Cl>Br>I), although not statistically significant (P>0.05).

[3] = tested on: HK-1 nasopharyngeal squamous carcinoma cells; assay: MTT cell viability assay, 48 h; type: cell-based; details: Homo sapiens, 48 h post-treatment, mean ± SD
Experimental: as §1, §2

[4] = tested on: HSC-2 oral cavity human squamous carcinoma cells; assay: MTT cell viability assay, 48 h; type: cell-based; details: 48 h post-treatment, mean ± SD
Experimental: as §1, §2

[5] = tested on: MCF-7 breast carcinoma; assay: MTT cell viability assay, 48 h; type: cell-based; details: Homo sapiens, MCF7, 48 h post-treatment, mean ± SD
Experimental: as §1, §2

[6] = tested on: panel of solid human tumor cell lines (MCF-7, HCT-116, HSC-2, HK-1); assay: MTT cell viability assay, panel of cancer cell lines; type: cell-based; details: mean over MCF-7, HCT-116, HSC-2, HK-1
Experimental: as §1, §2

[7] = target: Complex I; assay: Immunocapture ELISA microplate enzyme activity assay; type: biochemical; details: mouse liver mitochondria extract; 0.01–10 µM
[8] = target: Complex II (Mus musculus, UniProt Q8K2B3+Q9CQA3+Q9CXV1+Q9CZB0); assay: as above; type: biochemical; details: mouse liver mitochondria extract; 0.01–10 µM
[9] = tested on: panel of solid human tumor cell lines (MCF-7, HCT-116, HSC-2, HK-1); parameters: method as in PMID 19387338; details: anticancer activity in cellular assays; previous study; cited from earlier work
[10] = target: Complex IV (Mus musculus, UniProt P00397+P00405+P00416); assay: Immunocapture ELISA microplate enzyme activity assay; details: read-out: IC50 Complex IV activity; mouse liver mitochondria extract; 0.01–10 µM
[11] = target: ATP synthase (Mus musculus, UniProt P56480+Q03265); assay: as above; details: read-out: IC50 ATP synthase activity; mouse liver mitochondria extract; 0.01–10 µM
[12] = tested on: NCI-60 human tumor cell lines; assay: NCI-60 screen, sulforhodamine B, whole panel; type: cell-based; details: overall value for the NCI-60 cell lines screen; for GI50: Homo sapiens
Experimental: NCI-60 cell panel screening was performed by the NCI/National Institutes of Health developmental therapeutics program (Bethesda, US). This platform allows the determination of growth inhibitory profiles of test compounds on 60 different human cancer cell lines, representing leukemia, melanoma and cancers of the lung, colon, central nervous system, ovary, breast, prostate, and renal subpanel. Sulforhodamine B assay was used to assess the cytotoxicity of test agents in a panel of 60 cell lines. Briefly, the human tumor cell lines of the cancer screening panel were grown in RPMI 1640 medium containing 5% FBS and 2 mM L-glutamine. For a typical screening experiment, cells were inoculated into 96 well microtiter plates in 100 µl at plating densities depending on the doubling time of individual cell lines. After cell inoculation, the microtiter plates are incubated at 37°C, 5% CO2 and 100% relative humidity for 24 h. Following incubation, aliquots of 100 µl of compound at different dilutions were added to the appropriate microtiter wells and were further incubated for 48 h. At the assay end-point, cells were fixed with trichloroacetic acid followed by Sulforhodamine B staining for cellular protein content. Sulforhodamine B absorbance was read at a wavelength of 515 nm as a measurement of cell density.

[13] = tested on: 4T1 mouse mammary carcinoma; assay: In vivo antitumor efficacy, tumor allograft; parameters: species or system female BALB/c mice; details: for median day for 4T1 tumor in attaining two-doubling growth (RTV = 4): control approximately 9 days; for terminal percent test/control (% T/C): end of experiment (day 14)
Experimental: All animal experiments were conducted in accordance with protocols reviewed and approved by Dr. Haji Azizuddin Bin Haji Kamaruddin, Laboratory Animal Centre (LAC) Animal Care and Use Committee of Faculty of Medicine, University of Malaya (reference number FAR/14/07/2010/LSH). Female BALB/c mice aged between 6–8 weeks with a minimum weight of 17 g were maintained in a controlled environment of 12 h light-dark cycles with free access to food (standard pellet diet purchased from Altromin International, Lage, Germany) and purified water. Female mice were used because the hormonal environment essential for development of implanted 4TI mouse mammary carcinoma would be present.
(§3) Tumor allografts were initiated by subcutaneous injection of 5×10^5 4T1 mouse mammary carcinoma in 0.1 ml RPMI 1640 media into the inguinal mammary fat-pads of mice. Tumor growth was monitored and treatments were initiated when tumors reached volume of approximately 200 mm^3. To assess the tumor growth inhibition, 4T1 tumor bearing mice were randomized into groups with at least eight animals per group. Compound 5 was prepared at 0.3 mg/ml in normal saline and treatment was administered intravenously at 5 mg/kg on staging day or 3 mg/kg every other day for six treatments (q2dx6). For control group, normal saline was given. The animal weights and tumor volume were measured three times weekly for 14 d. The tumor volume was calculated using the equation: (length×width^2)/2 and relative tumor volume (RTV) was calculated for every tumor volume at any given time (VT) against the tumor volume at staging day (V0) using the equation: VT/V0. The RTV – time profile for each group was plotted and tumor growth delay in attaining a specified number of doublings compared to control was determined, [19]. Results were expressed as median ±95% confidence interval (n = 8).

[14] = Body weight and adverse effects in treated mice; type: in vivo
Experimental: as §3, with “Compound 5 was prepared at 0.3 mg/ml in normal saline and treatment was administered intravenously at 5 mg/kg on staging day or 3 mg/kg every other day for six treatments (q2dx6).” left out
Meanwhile, the terminal percent test/control (% T/C) values calculated at the end of experiment were 72% and 66% in mice receiving 5 mg/kg and 3 mg/kg (q2d×6) respectively. The antitumor efficacy of 5 is minimal as the % T/C attained after treatment had ended is not ≤40% activity, the minimal rating for a compound to be considered active. […]

[15] = Solubility in aqueous media for treatment stock; type: physicochemical; details: reconstitution of treatment stock at 10 mM
Experimental: Compounds 3, 4 and 6 were synthesized to test if meso-replacement with 4-bromobenzene 3, 4-chlorobenzene 4 or 2-furyl 6 groups would affect the anticancer activity. In addition, the 4-iodobenzene 7 or 2-thiofuran meso substituents 8 and unsymmetrical piperidine/[…] amine substituents were synthesized and investigated. Rosamines 1–4 and 7 were not appreciably water-soluble so they were reconstituted in DMSO at 10 mM as treatment stock.

Complex II, sequence (Q8K2B3 43-664): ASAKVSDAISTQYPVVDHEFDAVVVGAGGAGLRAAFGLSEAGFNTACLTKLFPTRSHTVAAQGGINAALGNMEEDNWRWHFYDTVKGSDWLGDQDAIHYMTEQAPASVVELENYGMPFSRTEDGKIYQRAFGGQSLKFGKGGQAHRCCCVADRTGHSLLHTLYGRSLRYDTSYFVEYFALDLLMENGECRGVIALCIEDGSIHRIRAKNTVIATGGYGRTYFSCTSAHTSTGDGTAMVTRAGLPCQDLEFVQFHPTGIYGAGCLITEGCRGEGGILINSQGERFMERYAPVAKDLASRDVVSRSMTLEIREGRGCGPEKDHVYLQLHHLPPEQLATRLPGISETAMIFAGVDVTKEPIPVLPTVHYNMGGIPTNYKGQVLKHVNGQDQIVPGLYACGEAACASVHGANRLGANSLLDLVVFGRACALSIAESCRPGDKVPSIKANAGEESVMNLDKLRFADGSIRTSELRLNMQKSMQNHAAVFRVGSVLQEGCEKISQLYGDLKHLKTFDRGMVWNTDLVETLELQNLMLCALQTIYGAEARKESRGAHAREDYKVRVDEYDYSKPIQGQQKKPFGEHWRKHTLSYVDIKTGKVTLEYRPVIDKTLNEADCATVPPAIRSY
Complex II, sequence (Q9CQA3 31-282): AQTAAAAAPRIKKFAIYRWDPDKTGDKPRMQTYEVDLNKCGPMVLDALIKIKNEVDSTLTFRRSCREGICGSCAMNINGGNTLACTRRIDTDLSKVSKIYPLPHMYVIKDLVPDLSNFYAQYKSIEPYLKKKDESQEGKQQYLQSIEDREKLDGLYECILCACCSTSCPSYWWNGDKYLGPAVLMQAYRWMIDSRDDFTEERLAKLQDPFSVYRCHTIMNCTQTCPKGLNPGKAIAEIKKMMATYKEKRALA
Complex II, sequence (Q9CZB0 30-169): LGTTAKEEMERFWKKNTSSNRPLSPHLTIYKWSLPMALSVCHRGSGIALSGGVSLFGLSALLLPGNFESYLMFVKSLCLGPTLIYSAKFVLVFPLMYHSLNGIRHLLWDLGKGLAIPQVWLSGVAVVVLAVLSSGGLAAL
Complex II, sequence (Q9CXV1 57-159): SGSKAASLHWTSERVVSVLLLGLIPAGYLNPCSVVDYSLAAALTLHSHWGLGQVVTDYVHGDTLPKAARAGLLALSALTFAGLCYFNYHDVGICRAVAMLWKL

| IC50 [2] | IC50 [3] | IC50 [4] | IC50 [5] | IC50 [6] | water solubility [15] | SMILES | further results |
| --- | --- | --- | --- | --- | --- | --- | --- |
|  |  |  |  |  |  | N#CC(C#N)=NNc1cccc(Cl)c1 [CCCP, Carbonyl cyanide 3-chlorophenylhydrazone, reference compound] | cell population with loss of membrane potential ([1]; 5 µM for 5 min, positive control): 70% |
| 600 ± 410 nM | 610 ± 70 nM | 90 nM | 1200 ± 700 nM | 630 nM |  | c1ccc(-c2c3ccc(=[N+]4CCCCC4)cc-3oc3cc(N4CCCCC4)ccc23)cc1 [Rosamine 1] |  |
| 300 ± 80 nM | 340 nM | 190 ± 110 nM | 290 ± 40 nM | 280 nM |  | Brc1ccc(-c2c3ccc(=[N+]4CCCCC4)cc-3oc3cc(N4CCCCC4)ccc23)cc1 [Rosamine 3, 4-Bromobenzene Rosamine] |  |
| 220 ± 140 nM | 250 ± 10 nM | 90 ± 10 nM | 150 ± 40 nM | 180 nM |  | Clc1ccc(-c2c3ccc(=[N+]4CCCCC4)cc-3oc3cc(N4CCCCC4)ccc23)cc1 [Rosamine 4, 4-Chlorobenzene Rosamine] | GI50 [12]: 100 nM; Log10GI50 [12]: −7 |
| 100 ± 30 nM | 310 ± 80 nM | 90 nM | 310 ± 140 nM | 200 nM | readily solubilized in aqueous media | c1coc(-c2c3ccc(=[N+]4CCCCC4)cc-3oc3cc(N4CCCCC4)ccc23)c1 [Rosamine 6, Furan Rosamine] |  |
| 240 ± 70 nM | 440 ± 10 nM | 220 ± 100 nM | 260 ± 70 nM | 290 nM |  | Ic1ccc(-c2c3ccc(=[N+]4CCOCC4)cc-3oc3cc(N4CCCCC4)ccc23)cc1 [Rosamine 7, Unsymmetrical 4-Iodophenyl Rosamine] |  |
| 70 ± 20 nM | 530 nM | 220 ± 110 nM | 170 ± 100 nM | 250 nM | readily solubilized in aqueous media | c1csc(-c2c3ccc(=[N+]4CCOCC4)cc-3oc3cc(N4CCCCC4)ccc23)c1 [Rosamine 8, Unsymmetrical Thiofuryl Rosamine] |  |

| SMILES | IC50 [2] | IC50 [3] | IC50 [4] | IC50 [5] | IC50 [6] | water solubility [15] | further results |
| --- | --- | --- | --- | --- | --- | --- | --- |
| Ic1ccc(-c2c3ccc(=[N+]4CCCCC4)cc-3oc3cc(N4CCCCC4)ccc23)cc1 [Rosamine 2] | 390 ± 70 nM | 290 ± 30 nM | 350 ± 50 nM | 590 ± 120 nM | 410 nM |  | cell population with mitochondrial transmembrane potential loss ([1]; 8 h): 19%; cell population with mitochondrial transmembrane potential loss ([1]; within 1 h after treatment): 9%; IC50 [7]: > 10000 nM; IC50 Complex II activity [8]: did not reach 50% up to maximum concentrations studied; fold more active than phenyl substituted compound 1 [9]: 5 fold; IC50 [10]: > 10000 nM; IC50 [11]: 3900 ± 300 nM |
| c1csc(-c2c3ccc(=[N+]4CCCCC4)cc-3oc3cc(N4CCCCC4)ccc23)c1 [Rosamine 5] | 70 ± 20 nM | 100 nM | 90 ± 10 nM | 180 ± 20 nM | 110 nM | readily solubilized in aqueous media | GI50 [12]: 100 nM; Log10GI50 [12]: −7; cell population with mitochondrial transmembrane potential loss ([1]; 8 h): 34%; cell population with mitochondrial transmembrane potential loss ([1]; within 1 h after treatment): Approximately 21%; IC50 [7]: > 10000 nM; IC50 [8]: 9600 ± 100 nM; median day for 4T1 tumor in attaining two-doubling growth (RTV = 4) ([13]; 3 mg/kg i.v. q2d×6): ~13 days; terminal percent test/control (% T/C) ([13]; 3 mg/kg i.v. q2d×6): 66%; two-doubling tumor growth delay (T-C)/C ([13]; 5 mg/kg single bolus i.v.): 22%; median day for 4T1 tumor in attaining two-doubling growth (RTV = 4) ([13]; 5 mg/kg single bolus i.v.): ~11 days; terminal percent test/control (% T/C) ([13]; 5 mg/kg single bolus i.v.): 72%; body weight loss ([14]; 4T1 tumor bearing mice, 5 mg/kg or 3 mg/kg (q2d×6) i.v., 14 d): ≤ 15%; adverse effects ([14]; mice, 10 mg/kg dose): unacceptable adverse effects such as weight loss, diarrhea and sudden death; fold more active than phenyl substituted compound 1 [9]: 5 fold; IC50 [10]: > 10000 nM; IC50 [11]: 3000 ± 800 nM |
